Measurements as given in patent US8853173B2, “Synthetic glycolipid and use thereof” (RIKEN, priority 2010, dated 2014).

Tests used:
NKT cells [1] = details: cited from earlier work
NKT cells [2] = details: cited from earlier work; remark: listed apart in the source
NKT cells [3] = details: cited from earlier work; remark: listed apart in the source
NKT cells [4] = details: cited from earlier work; remark: listed apart in the source
NKT cells [5] = details: cited from earlier work; remark: listed apart in the source
NKT cells [6] = assay: Influence of synthetic glycolipid on cytokine production of NKT cells: IFN-γ in mouse plasma after tail vein administration; format: in vivo, C57BL/6 mice; details: 100 μg/kg body weight, Cytometric Bead Array, data in FIG. 1-3
Protocol: A solution of each of α-GalCer (KRN7000), compound F and compound H in dimethyl sulfoxide (DMSO) was prepared at a concentration of 1 mg/mL. The above-mentioned DMSO solution was diluted with saline (manufactured by Otsuka Pharmaceutical Co., Ltd.) containing 0.5% tween 20 (Bio-Rad) such that the dose became 100 μg/kg body weight when 200 μL per mouse was administered from the tail vein.
The prepared solutions (200 μL) of compounds F and H were respectively injected to C57BL/6 mice (5 mice per group) from the tail vein. As a control substance, α-GalCer (KRN7000) was used, and a solution (200 μL) of α-GalCer (KRN7000) prepared in the same manner such that the dose became 100 μg/kg body weight was injected into the tail vein. The group administered with saline (200 μL) containing 0.5% tween 20 (medium) was used as a negative control. The blood (80 μL) immediately before administration and after administration (after lapse of the time indicated in FIGS. 1-3) was collected from the orbital sinus and plasma was prepared.
The IFN-γ content of the plasma before administration and after administration (after lapse of the time indicated in FIG. 1) was measured by Cytometric Bead Array system (BD Biosciences) which is one of the ELISA methods. The measurement results (mean) of the production amount of IFN-γ and the standard deviation thereof (STDEV) are shown in FIG. 1.

human NKT cells = details: cited from earlier work
NKT cells of mouse = details: cited from earlier work

In the case of `CCCCCCCCCCCCCCCCCCCCCCCCCC(=O)N[C@@H](COC1OC(CO)C(O)C(O)C1O)[C@H](O)[C@H](O)CCCCCCCCCCCCCC` (some centres unmarked) [KRN7000], the “immunostimulatory activity among synthesized analogs” value (NKT cells [1]) is listed as “shows the strongest activity”.

For `CCCCCCCCCCCCCCCCCCCCCCCCCC(=O)N[C@@H](COC1CC(CO)C(O)C(O)C1O)[C@H](O)[C@H](O)CCCCCCCCCCCCCC` (some centres unmarked) [RCAI-56], the “NKT cell activation / IFN-γ production” value (NKT cells [2]) is listed as “strongly activates NKT cells and induces production of a large amount of IFN-γ”, the “activity in the system of mouse” value (NKT cells [3]) is listed as “strong activity” and the “activity in the system of human (in vitro)” value (NKT cells [4]) is listed as “strong activity”.

For `CCCCCCCCCCCCCCCCCCCCCCCCCC(=O)N[C@@H](COC1OC(COC)C(O)C(O)C1O)[C@H](O)[C@H](O)CCCCCCCCCCCCCC` (some centres unmarked) [RCAI-61], the “NKT cell activation / IFN-γ production” value (NKT cells [2]) is given as “induces production of IFN-γ in large amounts”, the “activity in the system of mouse” value (NKT cells [3]) is given as “strong activity” and the “activity in the system of human (in vitro)” value (NKT cells [4]) is given as “strong activity”.

For `CCCCCCCCCCCCCCCCS(=O)(=O)N[C@@H](COC1OC(CO)C(O)C(O)C1O)[C@H](O)[C@H](O)CCCCCCCCCCCCCC` (some centres unmarked) [compound 5], the “type of cytokine production induced” value (NKT cells [5]) is listed as “induce production of mostly Th2 type cytokines such as IL-4”.

In the case of `CCCCCCCCCCCCCCCCCCCCCCCCC(F)(F)C(=O)N[C@@H](COC1OC(CO)C(O)C(O)C1O)[C@H](O)[C@H](O)CCCCCCCCCCCCCC` (some centres unmarked) [compound 6], the “type of cytokine production induced” value (NKT cells [5]) is listed as “induce production of mostly Th2 type cytokines such as IL-4”.

In the case of `CCCCCCCCCCCCCCCCCCCCCCCCc1cn([C@@H](COC2OC(CO)C(O)C(O)C2O)[C@H](O)[C@H](O)CCCCCCCCCCCCCC)nn1` (some centres unmarked) [compound 7], the “type of cytokine production induced” value (NKT cells [5]) is listed as “induce production of mostly Th2 type cytokines such as IL-4”.

With `CCCCCCCCCCCCCCCCCCCCCCCCNC(=O)N[C@@H](CO[C@H]1O[C@H](CO)[C@H](O)[C@H](O)[C@H]1O)[C@H](O)[C@H](O)CCCCCCCCCCCCCC` [compound F, (2S,3S,4R)-1-(α-D-galactopyranosyloxy)-2-(tetracosylureido)-3,4-octadecanediol] the “IFN-γ production compared with α-GalCer (KRN7000)” value (NKT cells [6]) was “selectively induced IFN-γ production in larger amounts than α-GalCer (KRN7000)”.

With `CCCCCCCCCCCCCCCCCCCCCCCCNC(=O)N[C@@H](CO[C@H]1O[C@H](COC)[C@H](O)[C@H](O)[C@H]1O)[C@H](O)[C@H](O)CCCCCCCCCCCCCC` [compound H, (2S,3S,4R)-1-(6-O-methyl-α-D-galactopyranosyloxy)-2-(tetracosylureido)-3,4-octadecanediol] the “IFN-γ production compared with α-GalCer (KRN7000)” value (NKT cells [6]) was “selectively induced IFN-γ production in larger amounts than α-GalCer (KRN7000)”.

For `CCCCCCCCCCCCCCCCCCCCCCCCCC(=O)N[C@@H](CCC1OC(CO)C(O)C(O)C1O)[C@H](O)[C@H](O)CCCCCCCCCCCCCC` (stereo partly drawn) [α-C-GalCer], the “activity in vitro on human NKT cells” value (human NKT cells) is listed as “hardly shows activity” and the “activation of mouse NKT cells and IFN-γ production” value (NKT cells of mouse) is listed as “strongly activates NKT cells of mouse and preferentially produces IFN-γ”.
